Results taken from patent publication US9955691B2, “Macrocyclic picolinamides as fungicides” (DOW AGROSCIENCES LLC, priority 2014, dated 2018).
Read-outs that look alike come from different tables or passages of the source.

How the values were obtained:
[1] = system: Mycosphaerella graminicola; Anamorph: Septoria tritici; test: Fungicidal activity: Leaf Blotch of Wheat (SEPTTR); format: in vivo; settings: Zymoseptoria tritici, wheat leaf blotch; for pest or weed control at 121.5 g/ha: Low Volume (121.5 g/H); for pest or weed control at 100 µg/mL: High Volume (100 ppm)
Experimental: Evaluation of Fungicidal Activity: Leaf Blotch of Wheat (Mycosphaerella graminicola; Anamorph: Septoria tritici; Bayer Code […]) Technical grades of materials were dissolved in acetone, which were then mixed with nine volumes of water containing 110 ppm Triton X-100. The fungicide solutions were applied onto wheat seedlings using an automated booth sprayer to run-off. All sprayed plants were allowed to air dry prior to further handling. All fungicides were evaluated using the aforementioned method for their activity vs. all target diseases, unless stated otherwise. Wheat leaf blotch and brown rust activity were also evaluated using track spray applications, in which case the fungicides were formulated as EC formulations, containing 0.1% Trycol 5941 in the spray solutions. Wheat plants (variety Yuma) were grown from seed in a greenhouse in 50% mineral soil/50% soil-less Metro mix until the first leaf was fully emerged, with 7-10 seedlings per pot. These plants were inoculated with an aqueous spore suspension of Septoria tritici either prior to or after fungicide treatments. After inoculation the plants were kept in 100% relative humidity (one day in a dark dew chamber followed by two to three days in a lighted dew chamber at 20° C.) to permit spores to germinate and infect the leaf. The plants were then transferred to a greenhouse set at 20° C. for disease to develop. When disease symptoms were fully expressed on the 1st leaves of untreated plants, infection levels were assessed on a scale of 0 to 100 percent disease severity. Percent disease control was calculated using the ratio of disease severity on treated plants relative to untreated plants.

[2] = system: Puccinia triticina; test: Fungicidal activity: Wheat Brown Rust (PUCCRT); format: in vivo; settings: for pest or weed control at 121.5 g/ha: Low Volume (121.5 g/H); for pest or weed control at 100 µg/mL: High Volume (100 ppm)
Experimental: Technical grades of materials were dissolved in acetone, which were then mixed with nine volumes of water containing 110 ppm Triton X-100. The fungicide solutions were applied onto wheat seedlings using an automated booth sprayer to run-off. All sprayed plants were allowed to air dry prior to further handling. All fungicides were evaluated using the aforementioned method for their activity vs. all target diseases, unless stated otherwise. Wheat leaf blotch and brown rust activity were also evaluated using track spray applications, in which case the fungicides were formulated as EC formulations, containing 0.1% Trycol 5941 in the spray solutions. Wheat plants (variety Yuma) were grown from seed in a greenhouse in 50% mineral soil/50% soil-less Metro mix until the first leaf was fully emerged, with 7-10 seedlings per pot. These plants were inoculated with an aqueous spore suspension of Septoria tritici either prior to or after fungicide treatments. After inoculation the plants were kept in 100% relative humidity (one day in a dark dew chamber followed by two to three days in a lighted dew chamber at 20° C.) to permit spores to germinate and infect the leaf. The plants were then transferred to a greenhouse set at 20° C. for disease to develop. When disease symptoms were fully expressed on the 1st leaves of untreated plants, infection levels were assessed on a scale of 0 to 100 percent disease severity. Percent disease control was calculated using the ratio of disease severity on treated plants relative to untreated plants. Evaluation of Fungicidal Activity: Wheat Brown Rust (Puccinia triticina; Synonym: Puccinia recondite f. Sp. Tritici; Bayer Code PUCCRT) Wheat plants (variety Yuma) were grown from seed in a greenhouse in 50% mineral soil/50% soil-less Metro mix until the first leaf was fully emerged, with 7-10 seedlings per pot. These plants were inoculated with an aqueous spore suspension of Puccinia triticina either prior to or after fungicide treatments. After inoculation the plants were kept in a dark dew room at 22° C. with 100% relative humidity overnight to permit spores to germinate and infect the leaf. The plants were then transferred to a greenhouse set at 24° C. for disease to develop. Fungicide formulation, application and disease assessment followed the procedures as described in the Example A.

[3] = 24 h, 1 Day Protectant, read-out: SEPTTR 1 DP disease control
[4] = 72 h, 3 Day Curative, read-out: SEPTTR 3 DC disease control
[5] = 24 h, 1 Day Protectant, read-out: PUCCRT 1 DP disease control
[6] = 72 h, 3 Day Curative, read-out: PUCCRT 3 DC disease control

Row | Structure (SMILES) | pest or weed control at 121.5 g/ha [1, 3] [%] | pest or weed control at 121.5 g/ha [1, 4] [%] | pest or weed control at 121.5 g/ha [2, 5] [%] | pest or weed control at 121.5 g/ha [2, 6] [%] | pest or weed control at 100 µg/mL [1, 3] [%] | pest or weed control at 100 µg/mL [1, 4] [%] | pest or weed control at 100 µg/mL [2, 5] [%] | pest or weed control at 100 µg/mL [2, 6] [%]
1 | CCC[C@H]1COC[C@H](NC(=O)c2nccc(OC)c2OCOC(=O)C(C)C)C(=O)O[C@@H](C)[C@@H]1CC(C)C [compound 65] | > 70 | > 70 | > 70 | > 70 | – | – | – | –
2 | COc1ccnc(C(=O)N[C@H]2COC[C@H](Cc3ccc(Cl)cc3)[C@@H](CC(C)C)[C@H](C)OC2=O)c1OCOC(C)=O [compound 73] | > 70 | > 70 | > 70 | < 70 | – | – | – | –
3 | CCOCC(=O)OCOc1c(OC)ccnc1C(=O)N[C@H]1COC[C@H](Cc2ccc(Cl)cc2)[C@@H](CC(C)C)[C@H](C)OC1=O [compound 74] | > 70 | > 70 | > 70 | < 70 | – | – | – | –
4 | COc1ccnc(C(=O)N[C@H]2COC[C@H](Cc3ccc(Cl)cc3)[C@@H](CC(C)C)[C@H](C)OC2=O)c1OC(C)=O [compound 75] | > 70 | > 70 | > 70 | < 70 | – | – | – | –
5 | COc1ccnc(C(=O)N[C@H]2COC[C@H](CCCc3ccccc3)[C@@H](Cc3ccc(OC(F)(F)F)cc3)[C@H](C)OC2=O)c1OCOC(C)=O [compound 76] | > 70 | > 70 | > 70 | < 70 | – | – | – | –
6 | CCOCC(=O)OCOc1c(OC)ccnc1C(=O)N[C@H]1COC[C@H](CCCc2ccccc2)[C@@H](Cc2ccc(OC(F)(F)F)cc2)[C@H](C)OC1=O [compound 77] | < 70 | < 70 | < 70 | < 70 | – | – | – | –
7 | COc1ccnc(C(=O)N[C@H]2COC[C@H](Cc3ccc(C(F)(F)F)cc3)[C@@H](Cc3ccc(F)cc3)[C@H](C)OC2=O)c1OCOC(C)=O [compound 78] | < 70 | < 70 | < 70 | < 70 | – | – | – | –
8 | COc1ccnc(C(=O)N[C@H]2COC[C@H](Cc3ccc(C(F)(F)F)cc3)[C@@H](Cc3ccc(F)cc3)[C@H](C)OC2=O)c1OC(C)=O [compound 79] | > 70 | < 70 | > 70 | < 70 | – | – | – | –
9 | COc1ccnc(C(=O)N[C@H]2COC[C@H](Cc3ccc(C(F)(F)F)cc3)[C@@H](Cc3ccc(F)cc3)[C@H](C)OC2=O)c1OCOC(=O)C(C)C [compound 80] | < 70 | < 70 | > 70 | < 70 | – | – | – | –
10 | COc1ccnc(C(=O)N[C@H]2COC[C@H](CCCc3ccccc3)[C@@H](Cc3ccc(OC(F)(F)F)cc3)[C@H](C)OC2=O)c1OC(C)=O [compound 81] | < 70 | < 70 | < 70 | < 70 | – | – | – | –
11 | COc1ccnc(C(=O)N[C@H]2COC[C@H](Cc3ccccc3)[C@@H](CCC(C)C)[C@H](C)OC2=O)c1OCOC(=O)C(C)C [compound 82] | < 70 | < 70 | < 70 | < 70 | – | – | – | –
12 | CCOCC(=O)OCOc1c(OC)ccnc1C(=O)N[C@H]1COC[C@H](Cc2ccccc2)[C@@H](CCC(C)C)[C@H](C)OC1=O [compound 83] | > 70 | > 70 | > 70 | > 70 | – | – | – | –
13 | COc1ccnc(C(=O)N[C@H]2COC[C@H](Cc3ccccc3)[C@@H](CCC(C)C)[C@H](C)OC2=O)c1OC(C)=O [compound 84] | > 70 | > 70 | > 70 | > 70 | – | – | – | –
14 | COc1ccnc(C(=O)N[C@H]2COC[C@H](Cc3ccccc3)[C@@H](CCC(C)C)[C@H](C)OC2=O)c1OCOC(C)=O [compound 85] | > 70 | > 70 | > 70 | > 70 | – | – | – | –
15 | COc1ccnc(C(=O)N[C@H]2COC[C@H](CCC(C)C)[C@@H](C3CCCC3)[C@H](C)OC2=O)c1OCOC(=O)C(C)C [compound 94, ((2-(((3S,7R,8R,9S)-8-cyclopentyl-7-isopentyl-9-methyl-2-oxo-1,5-dioxonan-3-yl)carbamoyl)-4-methoxypyridin-3-yl)oxy)methyl isobutyrate] | > 70 | > 70 | > 70 | < 70 | – | – | – | –
16 | CCC[C@H]1COC[C@H](NC(=O)c2nccc(OC)c2OCOC(C)=O)C(=O)O[C@@H](C)[C@@H]1c1ccccc1 [compound 97] | > 70 | > 70 | > 70 | > 70 | – | – | – | –
17 | CCC[C@H]1COC[C@H](NC(=O)c2nccc(OC)c2OC(C)=O)C(=O)O[C@@H](C)[C@@H]1c1ccccc1 [compound 98] | > 70 | > 70 | > 70 | > 70 | – | – | – | –
18 | CCC[C@H]1COC[C@H](NC(=O)c2nccc(OC)c2OCOC(=O)C(C)C)C(=O)O[C@@H](C)[C@@H]1c1ccccc1 [compound 99] | > 70 | > 70 | > 70 | > 70 | – | – | – | –
19 | COc1ccnc(C(=O)N[C@H]2COC[C@H](CC3CC3)[C@@H](c3ccccc3)[C@H](C)OC2=O)c1OCOC(C)=O [compound 101] | > 70 | > 70 | > 70 | > 70 | – | – | – | –
20 | COc1ccnc(C(=O)N[C@H]2COC[C@H](CC3CC3)[C@@H](c3ccccc3)[C@H](C)OC2=O)c1OCOC(=O)C(C)C [compound 102] | > 70 | > 70 | > 70 | > 70 | – | – | – | –
21 | CCOCC(=O)OCOc1c(OC)ccnc1C(=O)N[C@H]1COC[C@H](CC2CC2)[C@@H](c2ccccc2)[C@H](C)OC1=O [compound 103] | > 70 | > 70 | > 70 | > 70 | – | – | – | –
22 | COc1ccnc(C(=O)N[C@H]2COC[C@H](CC3CC3)[C@@H](Cc3ccc(F)cc3)[C@H](C)OC2=O)c1OCOC(C)=O [compound 104] | > 70 | > 70 | > 70 | > 70 | – | – | – | –
23 | CCCC[C@@H]1[C@@H](Cc2ccccc2)COC[C@H](NC(=O)c2nccc(OC)c2O)C(=O)O[C@H]1C [compound 110] | – | – | – | – | > 70 | > 70 | < 70 | < 70
24 | COc1ccnc(C(=O)N[C@H]2COC[C@@H]3CCCC[C@H]3[C@@H](C)OC2=O)c1O [compound 114] | – | – | – | – | > 70 | < 70 | > 70 | > 70
